This note sets out measurements from patent US10596172B2 (Celgene CAR LLC, priority 2008, dated 2020).

Holding throughout (format): cell-based
Test [1] deals with Human naïve B cells. Kind of test: Human primary B cell proliferation assay. The settings on record: 5 μg/ml α-IgM 72 hours, 3H-thymidine incorporation. The method, then:
Human naïve B cells were purified from 100 mL whole blood using a MACS purification kit designed to isolate CD19+, IgD+ cells by negative selection. Purified naïve B cells were resuspended in RPMI complete and stimulated with 5 μg/ml α-IgM for 72 hours. ^3H-Thymidine was included in the culture media for the final 16 h, cells were harvested and ^3H incorporation measured. Inhibition of B cell proliferation correlates with inhibition of BTK substrate phosphorylation after α-IgM stimulation.
(In general: Uptake of a labelled nucleoside into DNA is a usual measure of proliferation.)

For test [2], the target named is T1, BTK (Homo sapiens (Human), UniProt Q06187). Kind of test: BTK occupancy from in vitro samples by ELISA (Ramos cells). The method, then: In order to determine the amount of free BTK in cell or tissue lysates, an ELISA protocol was employed that utilizes a biotinylated probe compound that binds only to free, unoccupied BTK. The conjugated biotin is captured on a streptavidin-coated ELISA plate and detected with a mouse anti-BTK antibody (Becton Dickinson, Franklin Lakes, N.J., USA) and a secondary goat anti-mouse HRP antibody (Zymed, South San Francisco, Calif., USA).
T1 sequence (Q06187 whole entry): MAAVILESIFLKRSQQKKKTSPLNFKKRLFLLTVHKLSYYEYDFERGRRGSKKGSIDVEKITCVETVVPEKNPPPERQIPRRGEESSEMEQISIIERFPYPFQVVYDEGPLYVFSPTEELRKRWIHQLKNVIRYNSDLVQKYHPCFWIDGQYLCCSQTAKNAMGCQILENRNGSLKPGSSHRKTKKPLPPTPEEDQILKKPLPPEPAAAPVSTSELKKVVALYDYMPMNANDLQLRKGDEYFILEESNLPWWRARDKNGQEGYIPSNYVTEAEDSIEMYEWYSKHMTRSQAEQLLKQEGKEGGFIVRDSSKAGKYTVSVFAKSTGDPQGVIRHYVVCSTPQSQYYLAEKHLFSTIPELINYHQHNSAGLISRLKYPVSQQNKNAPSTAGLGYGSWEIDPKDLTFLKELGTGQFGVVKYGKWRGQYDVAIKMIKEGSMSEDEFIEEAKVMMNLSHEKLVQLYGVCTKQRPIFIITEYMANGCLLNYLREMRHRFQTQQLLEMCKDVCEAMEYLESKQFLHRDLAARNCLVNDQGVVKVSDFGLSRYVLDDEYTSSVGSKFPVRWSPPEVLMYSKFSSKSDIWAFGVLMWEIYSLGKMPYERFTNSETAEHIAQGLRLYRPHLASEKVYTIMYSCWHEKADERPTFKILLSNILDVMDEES
All samples were prepared with equal concentrations of Biorad lysis buffer (Hercules, Calif., USA), 0.5% bovine serum albumin in PBS with 0.05% Tween-20 to give a final concentration of 1 μM I-215. Samples were incubated in a mixing plate for 1 hr at room temperature while shaking to allow probe compound I-215 to bind to free BTK. After incubation with I-215, samples were added to a washed, streptavidin-coated ELISA plate (Pierce, Rockford, Ill., USA) and incubated for 1 hr at room temperature while shaking. The plate was then washed with PBS containing 0.05% Tween-20 using an automatic plate washer. Anti-BTK antibody was prepared at 1:1000 dilution in 0.5% BSA in PBS (0.05% Tween-20) and added to the ELISA plate. The plate was incubated for 1 hr at room temperature while shaking. The plate was washed as described above and the secondary HRP antibody was prepared at 1:5000 dilution in 0.5% BSA in PBS (0.05% Tween-20). The plate was incubated and washed as described above. TMB was added to the plate, and OD650 was monitored until reaching 1 OD unit. The reaction was then stopped with addition of H2SO4. The plate was analyzed using Gen 5 software, and a 4 Parameter Logistic curve was employed to quantitate samples. Recombinant BTK (Invitrogen, Carlsbad, Calif., USA) was used for the standard curve.
A concentration designated as “A” is greater than 1 nM; a concentration designated as “B” is greater than 10 nM; and a concentration designated as “C” is greater than 50 nM.
(An ELISA detects its analyte on a solid surface through an enzyme-linked reagent.)

Test [3] has as its target T1, BTK. Kind of test: Washout experiment with I-7 and probe compound I-215 in Ramos cells. The note with it: 0.1 μM, 1 hour. The method, then: Ramos cells were incubated with 0.1 μM I-7 or a reversible BTK inhibitor control compound in serum free media for 1 hour at 37° C. The cells were then washed in compound-free media and lysed 0, 4, 6, or 8 hours after compound removal. Cell lysates were incubated with 1 μM I-215 for 1 hour at room temperature, then overnight at 4° C. with streptavidin-coupled agarose beads. Protein was boiled off the beads and BTK association was assessed by western blot. […] In contrast, with the reversible inhibitor control, 45% of BTK protein is unbound and available to the probe at 0 hours and by 4 hours 100% of BTK protein is unbound and available to bind the probe. All samples were normalized to the DMSO-treated cells harvested at 0 hours.

Broadly, the EC50 is the concentration giving half of the maximal effect. A low value points to a more potent agent. Regarding `C=CC(=O)Nc1cccc(Nc2nc(Nc3ccccc3)ncc2C)c1` [Compound I-7, N-(3-(5-methyl-2-(phenylamino)pyrimidin-4-ylamino)phenyl)acrylamide], the EC50 in test [1] fell in the range of 1 to 10 nM. In addition, in test [2], the “>50% occupancy (concentration at which >50% of BTK is occupied)” value is on record as “A (greater than 1 nM)” and the “>90% occupancy (concentration at which >90% of BTK is occupied)” value is “B (greater than 10 nM)”. In addition, in test [3], the “time BTK protein remains occupied after compound removal” value is reported as “over 8 hours”.
